Measured values as given in patent US20240009191A1, “METHOD AND COMPOSITION FOR THE TREATMENT OF DISEASE” (DIMERIX BIOSCIENCE PTY LTD, priority 2019, published 2024).

Legend:
AT1R-CXCR2 heteromer = biological target: T1, AT1R-CXCR2 heteromer (Homo sapiens, UniProt P25025+P30556); test: BRET trafficking of AT1R/Rluc8 (Venus/Kras, Rab5) with unlabelled CXCR2, pre-treatment with vehicle or antagonists/inverse agonists; type: cell-based; conditions: pre-treatment with vehicle, 100 nM AngII only or with 10 nM CXCL8
T1 sequence (P30556 1-359): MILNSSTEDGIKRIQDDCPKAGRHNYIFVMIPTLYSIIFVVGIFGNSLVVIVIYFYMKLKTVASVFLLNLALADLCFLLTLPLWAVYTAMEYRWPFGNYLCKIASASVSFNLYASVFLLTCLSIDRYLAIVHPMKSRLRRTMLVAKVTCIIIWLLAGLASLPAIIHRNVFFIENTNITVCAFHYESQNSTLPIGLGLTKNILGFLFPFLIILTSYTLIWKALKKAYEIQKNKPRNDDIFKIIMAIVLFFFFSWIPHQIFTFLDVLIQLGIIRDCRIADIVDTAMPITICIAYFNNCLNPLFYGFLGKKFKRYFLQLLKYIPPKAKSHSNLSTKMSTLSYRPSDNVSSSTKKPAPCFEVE
T1 sequence (P25025 1-360): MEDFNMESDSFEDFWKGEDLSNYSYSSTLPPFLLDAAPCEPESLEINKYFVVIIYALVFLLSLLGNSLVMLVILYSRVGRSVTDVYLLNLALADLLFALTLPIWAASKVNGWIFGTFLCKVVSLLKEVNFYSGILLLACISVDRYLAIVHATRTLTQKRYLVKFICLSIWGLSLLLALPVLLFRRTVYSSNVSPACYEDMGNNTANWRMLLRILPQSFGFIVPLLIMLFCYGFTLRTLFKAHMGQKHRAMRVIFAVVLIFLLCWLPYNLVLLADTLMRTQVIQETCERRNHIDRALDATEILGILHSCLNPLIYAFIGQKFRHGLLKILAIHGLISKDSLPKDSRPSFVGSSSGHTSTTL
Experimental: HEK293FT cells were seeded in 6-well plates at a density of approximately 700,000 cells/well and maintained at 37° C., 5% CO2 in Complete Media (DMEM containing 0.3 mg/ml glutamine, 100 IU/ml penicillin and 100 μg/ml streptomycin (Gibco/Thermo Fisher)) supplemented with 10% fetal calf serum (FCS; Bovogen). Transient transfections were carried out 24 h after seeding using FuGene6™ (Promega) according to manufacturer instructions. 24 h post-transfection, cells were washed with PBS, detached using 0.05% trypsin/0.53 mM EDTA, resuspended in HEPES-buffered phenol red free Complete Media containing 5% FCS and added to a poly-L-lysine-coated white 96-well microplate (Greiner Bio-One). 48 h post-transfection, bioluminescence resonance energy transfer (BRET) assays were carried out following pre-incubation of cells with EnduRen™ (Promega) at a final concentration of 30 μM, at 37° C., 5% CO2 for 2 h. BRET measurements were taken at 37° C. using the LUMlstar™ or CLARIOstar™ (BMG Labtech).
For antagonist/inverse agonist assays, cells were pre-incubated with EnduRen for 1.5 hours, followed by the addition of vehicle or antagonists/inverse agonists (10 μM) for another 30 minutes.
The BRET signal observed between interacting proteins is normalized by subtracting the background BRET ratio. […] In the following examples, the second calculation will be used and the signal is described as ligand-induced BRET′. Furthermore, for data shown in FIGS. 4 to 20, all data points in a given set are corrected relative to the final data point prior to agonist treatment, which is fixed to zero. In keys on FIGS. 7 to 20, “>” means “followed by after 50 minutes”, with agonists added at time zero on the x-axes.
Prior to agonist treatment (added at 0 minutes), a baseline BRET signal was recorded for each of the combinations for 20 minutes. Data were calculated as ligand-induced BRET relative to the ‘vehicle followed by vehicle’ (veh>veh) data set.

AT1R and CXCR2 = biological target: T2, AT1R and CXCR2 (Homo sapiens, UniProt P25025+P30556); test: IP1 accumulation, HEK293 cells transiently-transfected with AT1R and CXCR2; type: cell-based
T2 sequence (P30556 1-359): T1 sequence (P30556 1-359)
T2 sequence (P25025 1-360): T1 sequence (P25025 1-360)
Experimental: Referring now to FIG. 2, Receptor activation of the phospholipase C pathway was detected through the measurement of D-myo-Inositol 1-Phosphate (IP1) by competitive immunoassay (IP-one—Gq Kit, Cisbio 62IPAPEC). Human Embryonic Kidney (HEK) 293 cells were transiently transfected in suspension with the AGTR1 vector (Origene RC212008) alone or co-transfected with the CXCR2 vector (Origene Cat RC207794) using FuGene™ HD reagent (Promega E2311). […] Agonists were prepared in a threefold serial dilution in stimulation buffer+0.1% BSA and added to the assay to give the appropriate final concentration-response curves, and co-stimulation at a single concentration as required. An IP1 standard curve was also constructed in 14 μl Stimulation Buffer+0.1% BSA. Incubations were conducted for 90 min at 37° C., 5% CO2, after which 3 μl IP1-d2 Reagent and 3 μl IP1 Tb Cryptate Antibody (Cisbio 62IPAPEC), in Lysis & Detection buffer, were added to each well for 60 min at room temperature. Plates were read on a HTRF® compatible reader (PHERAstar™, BMG Labtech), using 337 nm excitation and collecting donor/acceptor emission at 620 nm and 665 nm. A standard curve was plotted to interpolate unknown HTRF ratio (665/620×10 000) measurements as IP1 concentration (nM). […]

Angiotensin II [AngII]
proximity of AT1R/Rluc8 to Venus/Kras (BRET) (AT1R-CXCR2 heteromer; FIG. 19A, 19B): marked reduction | proximity of AT1R/Rluc8 to Venus/Rab5 (BRET) (AT1R-CXCR2 heteromer; FIG. 20A, 20B): marked increase | Rmax, IP1 accumulation (AT1R and CXCR2): 567 nM
